# Laboratory results published in patent US11458149B1, “TEAD inhibitors and uses thereof” (Ikena Oncology, Inc., priority 2019, dated 2022).
# Where two headings read alike, the source gives them in different places.
# Tests used:
# H226 = assay: Anti-proliferation assay in H226 cells; format: cell-based, human; details: read-out: H226 EC50
# Protocol: (§1) Certain compounds were tested in TEAD reporter assay, and in H226 and H28. A: EC50<0.1 uM; B: 0.1 uM≤EC50≤0.5 uM; C: EC50>0.5 uM.
# (§2) Individual cell lines were grown in medium according to supplier instructions and seeded into 96-well plates at a density that ensured logarithmic growth over 72 hours. TEAD inhibitor compounds were administered to cells at a top concentration of 10 μm and subsequently a 10 point 3-fold serial dilution was conducted. After 72 hours, proliferation was quantified using Cell TITERGLO™ (Promega, Inc.) and compared to vehicle control. IC50 and EC50 values were generated using XLFit curve fitting software.
# [1] = Mouse pharmacokinetics study; format: in vivo; details: BALB/c mice, 10 mg/kg oral gavage, 5% DMS/95% PEG400, plasma
# Protocol: Formulated compounds were administered intravenously or orally via gavage to BALB/c mice. Typically, at 0.167, 0.5, 1, 2, 4, 6, 12, and 24 hours post-dose, blood was collected and processed to plasma by centrifugation and stored at −80° C. until analysis. Internal standard was added to each sample prior to protein precipitation with acetonitrile or TCA. The precipitates were filtered through a filter plate and the samples were analyzed by LC/MS/MS. A standard curve was prepared in plasma from typically from 1.0 ng/mL to 3000 ng/mL and processed in the same manner as the samples. Sample analysis was typically performed on a suitable LC/MS/MS system fitted with an analytical UPLC column and compounds eluted from the analytical column with a gradient from 30-95% 0.1% formic acid (v/v) in ACN: 0.1% formic acid (v/v) in water. Mass spectrometric detection of test compound and the internal standard was performed by […] in positive mode. The pharmacokinetics of each compound were analyzed by Phoenix WinNonlin software (Pharsight, St. Louis, Mo.) via noncompartmental analysis. FIG. 4 depicts pharmacokinetic (PK) properties of isomer 1 of compound I-186 following dosing in BALB/c mice.
# TEAD = TEAD reporter assay (Hippo Pathway TEAD Reporter - MCF7 cell line, luciferase); format: cell-based, human; details: read-out: TEAD Reporter Assay EC50
# Source text: TEAD inhibition can be assayed using Hippo Pathway TEAD Reporter—MCF7 Cell Line (BPS Bioscience, Catalog #: 60618).
# The TEAD Reporter—MCF7 cell line contains the firefly luciferase gene under the control of TEAD responsive elements stably integrated into the human breast cancer cell line, MCF7. Inside the cells, basal unphosphorylated YAP/TAZ remains in the nucleus and induces the constitutive expression of luciferase reporter. The cell line is validated for the inhibition of the expression of luciferase reporter by the activators of the Hippo pathway.
# • 1) Harvest TEAD Reporter—MCF7 cells from culture in growth medium and seed cells at a density of 35,000 cells per well into white clear-bottom 96-well microplate in 45 μl of assay medium. • 2) Incubate cells at 37° C. in a CO2 incubator for overnight. • 3) Dilute the activators (H2O2 or okadaic acid) stock in assay medium. Add 5 μl of diluted activators to the wells. The final concentration of DMSO in assay medium is 0.1%. • 4) Add 5 μl of assay medium with same concentration of DMSO without activator to control wells. • 5) Add 50 μl of assay medium with DMSO to cell-free control wells (for determining background luminescence). • 6) Set up each treatment in at least triplicate. • 7) Incubate cells at 37° C. in a CO2 incubator for 5-6 hours. • 8) Perform luciferase assay using the ONE-Step™ Luciferase Assay System following the protocol provided: Add 100 μl of ONE-Step™ Luciferase reagent per well and rock at room temperature for ˜15 minutes. Measure luminescence using a luminometer. • 9) Data Analysis: Obtain the background-subtracted luminescence by subtracting the average background luminescence (cell-free control wells) from the luminescence reading of all wells.
# as §1
# H28 = assay: Anti-proliferation assay in H28 cells; format: cell-based; details: Homo sapiens, NCI-H28
# Protocol: as §1, §2
# The effect of isomer 2 of compound I-12 on cell proliferation is dependent on the presence of a Hippo/NF2 mutation. No effect is seen by isomer 2 of compound I-12 on the NF2 wild-type H28 cell line.
# [2] = Homo sapiens, NCI-H226, H226 cells
# [3] = Homo sapiens, MCF7, TEAD Reporter - MCF7 cells
EC50 (H226; [2]) [nM],AUC(0-t) ([1]; mouse) [ng·h/mL],"Cmax ([1]; mouse, read-out: Cmax) [ng/mL]",EC50 (TEAD; [3]) [nM],SMILES,also measured
,1260,1250,,"C=CC(=O)N1CC[C@@H](NCc2ccc(C(F)(F)F)cc2)C1 [Compound I-211, 1-[(3R)-3-[[4-(trifluoromethyl)phenyl]methylamino]pyrrolidin-1-yl]prop-2-en-1-one]",
,226,318,,"C=CC(=O)N[C@H]1[C@@H]2CCN(Cc3ccc(C(F)(F)F)cc3)C[C@@H]21 [Compound I-208, N-[(1R,6R,7S)-4-[[4-(trifluoromethyl)phenyl]methyl]-4-azabicyclo[4.1.0]heptan-7-yl]prop-2-enamide]",
< 100,368,345,< 100,"C=CC(=O)NC1CCN([C@H](C)c2ccc(C(F)(F)F)cc2)CC1 [Compound I-62, N-[1-[(1R)-1-[4-(Trifluoromethyl)phenyl]ethyl]-4-piperidyl]prop-2-enamide]",
> 500,,,100 to 500,"C=CC(=O)N1CC[C@H](NCc2cccc(C(F)(F)F)c2)C1 [Compound I-65, 1-[(3S)-3-[[3-(trifluoromethyl)phenyl]methylamino]pyrrolidin-1-yl]prop-2-en-1-one]",
> 500,,,> 500,"C=CC(=O)N[C@@H]1CCCN(Cc2cccc(C(F)(F)F)c2)C1 [Compound I-47, N-[(3R)-1-[[3-(trifluoromethyl)phenyl]methyl]-3-piperidyl]prop-2-enamide]",
< 100,,,< 100,"C=CC(=O)N1CC[C@H](NCc2ccc(C(F)(F)F)cc2)C1 [Compound I-64, 1-[(3S)-3-[[4-(Trifluoromethyl)phenyl]methylamino]pyrrolidin-1-yl]prop-2-en-1-one]",
100 to 500,,,100 to 500,"C=CC(=O)N1CCC(NCc2ccc(C(F)(F)F)cc2)CC1 [Compound I-53, 1-[4-[[4-(trifluoromethyl)phenyl]methylamino]-1-piperidyl]prop-2-en-1-one]",

# More lines, now with the values behind:
SMILES,EC50 (H226; [2]) [nM],AUC(0-t) ([1]; mouse) [ng·h/mL],"Cmax ([1]; mouse, read-out: Cmax) [ng/mL]",EC50 (TEAD; [3]) [nM],also measured
"C=CC(=O)NC1[C@H]2CN(Cc3ccc(C(F)(F)F)cc3)C[C@@H]12 (stereo partly drawn) [Compound I-69, N-[(1R,5S)-3-[[4-(Trifluoromethyl)phenyl]methyl]-3-azabicyclo[3.1.0]hexan-6-yl]prop-2-enamide]",< 100,1240,1160,< 100,
"C=CC(=O)Nc1ccc(C)c(Oc2cncc(C(F)(F)F)c2)c1 [Compound I-30, N-[4-Methyl-3-[[5-(trifluoromethyl)-3-pyridyl]oxy]phenyl]prop-2-enamide]",< 100,,,< 100,EC50 (H28): > 500 nM
"C=CC(=O)Nc1ccc(C)c(N(C)c2cccc(C(F)(F)F)c2)c1 [Compound I-35, N-[4-methyl-3-[N-methyl-3-(trifluoromethyl)anilino]phenyl]prop-2-enamide]",< 100,,,< 100,EC50 (H28): > 500 nM
"C=CC(=O)NC1CCN(Cc2ccc(C(F)(F)F)cc2)c2ccccc21 (stereo in doubt) [Compound I-203, N-[(4R)-1-[[4-(Trifluoromethyl)phenyl]methyl]-3,4-dihydro-2H-quinolin-4-yl]prop-2-enamide]",,275,63.3,,
C=CC(=O)Nc1ccc(C)c(Oc2ccc(Cl)cc2)c1 [Compound P-5],,,,,AUC0-last [1]: 397 ng·h/mL; Cmax [1]: 246 ng/mL
"C=CC(=O)NC1(C)CCN(Cc2ccc(C(F)(F)F)cc2)CC1 [Compound I-73, N-[4-methyl-1-[[4-(trifluoromethyl)phenyl]methyl]-4-piperidyl]prop-2-enamide]",,,,,EC50 (H226; H226 cells): > 500 nM; EC50 (TEAD; TEAD Reporter - MCF7 cells): > 500 nM
"C=CC(=O)Nc1cccc(N2CCCc3ccc(C(F)(F)F)cc32)c1 [Compound I-38, N-[3-[7-(trifluoromethyl)-3,4-dihydro-2H-quinolin-1-yl]phenyl]prop-2-enamide]",> 500,,,> 500,
C=CC(=O)Nc1cc(Oc2cccc(C(F)(F)F)c2)c(C)cn1 [Compound I-45],< 100,,,< 100,
C=CC(=O)NC1CCN(Cc2ccc(Cl)cc2)CC1 [Compound I-394],100 to 500,,,100 to 500,
